Earlier results in patent publication US20100203024A1 (priority 2006, published 2010).

Tested on: non-small-cell lung cancer
Settings: patients with refractory disease

## C#Cc1cccc(Nc2ncnc3cc(OCCOC)c(OCCOC)cc23)c1 [erlotinib]
  partial responses, percent of patients: 9%
